What was measured:
HCT-15 = test: Growth inhibition of human HCT15 cells assessed as cell growth at 0.5 uM incubated for 48 hrs by sulforhodamine B assay relative to control; format: functional; details: HCT-15, 48 h, read-out: Activity
RXF 393 = test: Growth inhibition of human RXF393 cells assessed as cell growth at 0.005 uM incubated for 48 hrs by sulforhodamine B assay relative to control; format: functional; details: RXF 393, 48 h, read-out: Activity
NCI/ADR-RES [1] = test: Growth inhibition of human NCI/ADR-RES cells assessed as cell growth at 0.005 uM incubated for 48 hrs by sulforhodamine B assay relative to control; format: functional; details: read-out: Activity
MDA-MB-231 = test: Growth inhibition of human MDA-MB-231 cells assessed as cell growth at 0.5 uM incubated for 48 hrs by sulforhodamine B assay relative to control; format: functional; details: MDA-MB-231, 48 h, read-out: Activity
Hs-578T = test: Growth inhibition of human Hs 578T cells assessed as cell growth at 5 uM incubated for 48 hrs by sulforhodamine B assay relative to control; format: functional; details: read-out: Activity
K562 = test: Growth inhibition of human K562 cells assessed as cell growth at 0.05 uM incubated for 48 hrs by sulforhodamine B assay relative to control; format: functional; details: K562, 48 h, read-out: Activity
NCI-H460 = test: Growth inhibition of human NCI-H460 cells assessed as cell growth at 0.05 uM incubated for 48 hrs by sulforhodamine B assay relative to control; format: functional; details: NCI-H460, 48 h, read-out: Activity
OVCAR-5 = test: Growth inhibition of human OVCAR5 cells assessed as cell growth at 0.05 uM incubated for 48 hrs by sulforhodamine B assay relative to control; format: functional; details: OVCAR-5, 48 h, read-out: Activity
M14 = test: Growth inhibition of human M14 cells assessed as cell growth at 0.5 uM incubated for 48 hrs by sulforhodamine B assay relative to control; format: functional; details: M14, 48 h, read-out: Activity
KM12 = test: Growth inhibition of human KM12 cells assessed as cell growth at 50 uM incubated for 48 hrs by sulforhodamine B assay relative to control; format: functional; details: KM12, 48 h, read-out: Activity
786-0 = test: Growth inhibition of human 786-0 cells assessed as cell growth at 5 uM incubated for 48 hrs by sulforhodamine B assay relative to control; format: functional; details: 786-0, 48 h, read-out: Activity
MCF7 = test: Growth inhibition of human MCF7 cells assessed as cell growth at 0.5 uM incubated for 48 hrs by sulforhodamine B assay relative to control; format: functional; details: MCF7, 48 h, read-out: Activity
T47D = test: Growth inhibition of human T47D cells assessed as cell growth at 50 uM incubated for 48 hrs by sulforhodamine B assay relative to control; format: functional; details: read-out: Activity
OVCAR-8 = test: Growth inhibition of human OVCAR8 cells assessed as cell growth at 0.005 uM incubated for 48 hrs by sulforhodamine B assay relative to control; format: functional; details: OVCAR-8, 48 h, read-out: Activity
UACC-257 = test: Growth inhibition of human UACC257 cells assessed as cell growth at 0.05 uM incubated for 48 hrs by sulforhodamine B assay relative to control; format: functional; details: UACC-257, 48 h, read-out: Activity
NCI/ADR-RES [2] = test: Growth inhibition of human NCI/ADR-RES cells assessed as cell growth at 0.5 uM incubated for 48 hrs by sulforhodamine B assay relative to control; format: functional; details: read-out: Activity
SK-MEL-28 = test: Growth inhibition of human SK-MEL-28 cells assessed as cell growth at 0.5 uM incubated for 48 hrs by sulforhodamine B assay relative to control; format: functional; details: SK-MEL-28, 48 h, read-out: Activity
NCI-H322M = test: Growth inhibition of human NCI-H322M cells assessed as cell growth at 0.005 uM incubated for 48 hrs by sulforhodamine B assay relative to control; format: functional; details: read-out: Activity
HOP-92 = test: Growth inhibition of human HOP92 cells assessed as cell growth at 50 uM incubated for 48 hrs by sulforhodamine B assay relative to control; format: functional; details: HOP-92, 48 h, read-out: Activity
MDA-MB-435 = test: Growth inhibition of human MDA-MB-435 cells assessed as cell growth at 0.05 uM incubated for 48 hrs by sulforhodamine B assay relative to control; format: functional; details: MDA-MB-435, 48 h, read-out: Activity
NCI-H522 = test: Growth inhibition of human NCI-H522 cells assessed as cell growth at 0.005 uM incubated for 48 hrs by sulforhodamine B assay relative to control; format: functional; details: NCI-H522, 48 h, read-out: Activity
SK-MEL-5 = test: Growth inhibition of human SK-MEL-5 cells assessed as cell growth at 5 uM incubated for 48 hrs by sulforhodamine B assay relative to control; format: functional; details: SK-MEL-5, 48 h, read-out: Activity
BT-549 = test: Growth inhibition of human BT549 cells assessed as cell growth at 0.05 uM incubated for 48 hrs by sulforhodamine B assay relative to control; format: functional; details: BT-549, 48 h, read-out: Activity
A549 = test: Growth inhibition of human A549/ATCC cells assessed as cell growth at 0.05 uM incubated for 48 hrs by sulforhodamine B assay relative to control; format: functional; details: A549, 48 h, read-out: Activity
U-251 = test: Growth inhibition of human U251 cells assessed as cell growth at 0.5 uM incubated for 48 hrs by sulforhodamine B assay relative to control; format: functional; details: U-251, 48 h, read-out: Activity
SF-295 = test: Growth inhibition of human SF295 cells assessed as cell growth at 0.5 uM incubated for 48 hrs by sulforhodamine B assay relative to control; format: functional; details: SF-295, 48 h, read-out: Activity
OVCAR-4 = test: Growth inhibition of human OVCAR4 cells assessed as cell growth at 0.5 uM incubated for 48 hrs by sulforhodamine B assay relative to control; format: functional; details: OVCAR-4, 48 h, read-out: Activity
OVCAR-3 = test: Growth inhibition of human OVCAR3 cells assessed as cell growth at 50 uM incubated for 48 hrs by sulforhodamine B assay relative to control; format: functional; details: OVCAR-3, 48 h, read-out: Activity
LOX IMVI = test: Growth inhibition of human LOXIMVI cells assessed as cell growth at 0.3 uM incubated for 48 hrs by sulforhodamine B assay relative to control; format: functional; details: read-out: Activity
[3] = target: Tyrosine-protein kinase ABL1 (Homo sapiens) (UniProt P00519); test: Inhibition of human ABL1 at 10 uM using EAIYAAPFAKKK as substrate in presence of [33P]ATP by Hotspot assay relative to control
Homo sapiens = species: Homo sapiens; test: Selectivity index, ratio of IC50 for human BRAF V600E mutant to IC50 for human c-RAF
MDA-MB-468 [4] = test: Growth inhibition of human MDA-MB-468 cells assessed as cell growth at 0.3 uM incubated for 48 hrs by sulforhodamine B assay relative to control; format: functional; details: MDA-MB-468, 48 h, read-out: Activity
MDA-MB-468 [5] = test: Growth inhibition of human MDA-MB-468 cells assessed as cell growth at 0.003 uM incubated for 48 hrs by sulforhodamine B assay relative to control; format: functional; details: MDA-MB-468, 48 h, read-out: Activity

Tyrosine-protein kinase ABL1 (Homo sapiens), sequence (P00519 whole entry): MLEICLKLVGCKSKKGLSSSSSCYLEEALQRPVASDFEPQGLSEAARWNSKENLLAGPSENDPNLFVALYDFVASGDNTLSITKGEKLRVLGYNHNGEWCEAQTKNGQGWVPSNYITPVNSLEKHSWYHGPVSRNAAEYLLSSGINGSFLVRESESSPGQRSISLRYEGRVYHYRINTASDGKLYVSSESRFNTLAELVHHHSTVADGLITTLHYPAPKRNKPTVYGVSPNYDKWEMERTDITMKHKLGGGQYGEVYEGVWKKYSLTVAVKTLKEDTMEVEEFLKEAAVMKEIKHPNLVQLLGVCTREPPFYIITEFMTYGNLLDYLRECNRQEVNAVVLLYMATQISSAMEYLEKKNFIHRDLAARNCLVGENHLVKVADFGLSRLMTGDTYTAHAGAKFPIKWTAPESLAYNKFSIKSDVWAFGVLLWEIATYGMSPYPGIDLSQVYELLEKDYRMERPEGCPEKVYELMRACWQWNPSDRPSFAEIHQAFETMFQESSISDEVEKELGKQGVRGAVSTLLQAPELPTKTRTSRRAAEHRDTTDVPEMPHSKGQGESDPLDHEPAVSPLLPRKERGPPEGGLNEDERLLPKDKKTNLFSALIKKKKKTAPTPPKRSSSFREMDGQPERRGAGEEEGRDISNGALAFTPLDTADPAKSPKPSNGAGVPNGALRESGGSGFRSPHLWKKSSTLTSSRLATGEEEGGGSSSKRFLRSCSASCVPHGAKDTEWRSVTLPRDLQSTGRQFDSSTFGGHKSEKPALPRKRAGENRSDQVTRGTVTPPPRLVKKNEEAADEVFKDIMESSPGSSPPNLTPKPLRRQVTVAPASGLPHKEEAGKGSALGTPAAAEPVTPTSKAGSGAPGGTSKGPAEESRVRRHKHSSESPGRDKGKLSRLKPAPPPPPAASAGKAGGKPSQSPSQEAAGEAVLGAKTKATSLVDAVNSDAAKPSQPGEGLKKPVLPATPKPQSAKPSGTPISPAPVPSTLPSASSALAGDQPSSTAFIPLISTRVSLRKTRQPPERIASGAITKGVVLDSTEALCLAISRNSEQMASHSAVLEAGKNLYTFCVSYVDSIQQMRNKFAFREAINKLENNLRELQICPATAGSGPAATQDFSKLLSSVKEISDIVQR

With `COc1cc2cc(Oc3ccc(NC(=O)Nc4cccc(C(F)(F)F)c4)cc3)c(C)nc2cc1OC` the growth at 0.5 µM (HCT-15) was 92%, the growth at 0.005 µM (RXF 393) was 94% and the growth at 0.005 µM (NCI/ADR-RES [1]) was 105%. For the same compound, the growth at 0.5 µM (MDA-MB-231) was 81%, the growth at 5 µM (Hs-578T) was -8% and the growth at 0.05 µM (K562) was 99%. For the same compound, the growth at 0.05 µM (NCI-H460) was 106%, the growth at 0.05 µM (OVCAR-5) was 103% and the growth at 0.5 µM (M14) was 90%. For the same compound, the growth at 50 µM (KM12) was -59%, the growth at 5 µM (786-0) was 12% and the growth at 0.5 µM (MCF7) was 85%. The growth at 50 µM (T47D) was -49%, the growth at 0.005 µM (OVCAR-8) was 101% and the growth at 0.05 µM (UACC-257) was 94%. It also gave a growth at 0.5 µM (NCI/ADR-RES [2]) of 95%, a growth at 0.5 µM (SK-MEL-28) of 92% and a growth at 0.005 µM (NCI-H322M) of 91%. For the same compound, the growth at 50 µM (HOP-92) was -74%, the growth at 0.05 µM (MDA-MB-435) was 96% and the growth at 0.005 µM (NCI-H522) was 86%. The growth at 5 µM (SK-MEL-5) was -35%, the growth at 0.05 µM (BT-549) was 84% and the growth at 0.05 µM (A549) was 96%. The growth at 0.5 µM (U-251) was 94%, the growth at 0.5 µM (SF-295) was 86% and the growth at 0.5 µM (OVCAR-4) was 99%. The growth at 50 µM (OVCAR-3) was -57%.
Compound `COc1cc2cc(Oc3ccc(NC(=O)Nc4ccc(Cl)c(C(F)(F)F)c4)cc3)c(C)nc2cc1OC` has a growth at 0.3 µM (LOX IMVI) of 101%, an inhibition [3] of -6.78% and a Ratio IC50 (Homo sapiens) of 2.6.
For `Cc1nc2cc(O)c(O)cc2cc1Oc1ccc(NC(=O)Nc2ccc(Cl)c(Cl)c2)cc1`, the growth at 0.3 µM (MDA-MB-468 [4]) was 99% and the growth at 0.003 µM (MDA-MB-468 [5]) was 100%.

Reference: ChEMBL document CHEMBL3994622, “Design and synthesis of new RAF kinase-inhibiting antiproliferative quinoline derivatives. Part 2: Diarylurea derivatives” (Eur J Med Chem, 2017)
